The record followed here is patent US9238802B2, “E. coli transformant, method for producing flavin-bound glucose dehydrogenase using the same, and mutant flavin-bound glucose dehydrogenases” (KIKKOMAN CORPORATION, priority 2010, dated 2016).

The subject of one assay is McGDH. Put plainly: Inhibitory effects of 1,10-phenanthroline on GDH activity. The assay is classed as biochemical, Mucor circinelloides f. circinelloides NISL0117. The procedure: (§1) The inhibitory effects of 1,10-phenanthroline on the activities of these flavin-bound GDHs were examined by the following method. According to the enzyme activity assay of Example 1, the enzyme activities when 1,10-phenanthroline was added at final concentrations of 1, 5, 10, 25, and 50 mM were determined to calculate the inhibitory rates relative to 0% of the inhibitory rate when no 1,10-phenanthroline was added.

Another assay concerns MjGDH. Described as above. It counts as biochemical, Mucor javanicus NISL0111. As to the method:
as §1

Assay [1] relates to flavin-bound GDHs of the invention. Briefly: Inhibitory effects of 1,10-phenanthroline, summary. The assay is classed as biochemical, Mucor. The procedure: as §1
The next assay has as its system MpGDH. Briefly: Inhibitory effects of 1,10-phenanthroline on GDH activity. It counts as biochemical, Mucor prainii NISL0103. The procedure: as §1

For `c1cnc2c(c1)ccc1cccnc12` [1,10-phenanthroline], the GDH inhibition rate with McGDH (1,10-phenanthroline 1 mM) is given as 1.95%; in the assay with McGDH (1,10-phenanthroline 5 mM), 8.23%; with McGDH (1,10-phenanthroline 10 mM), 12.8%; in the assay with McGDH (1,10-phenanthroline 25 mM), 36.2%; in the assay on McGDH (1,10-phenanthroline 50 mM) it was 68.5%; in the assay on MjGDH (1,10-phenanthroline 1 mM), 3.27%. Also, the GDH inhibition rate with MjGDH (1,10-phenanthroline 5 mM) was found to be 13.1%; in the assay on MjGDH (1,10-phenanthroline 10 mM) it was 23.5%; in the assay on MjGDH (1,10-phenanthroline 25 mM) it was 64.7%; with MjGDH (1,10-phenanthroline 50 mM) it was 88.9%; in the assay on MpGDH (1,10-phenanthroline 1 mM), 3.72%; with MpGDH (1,10-phenanthroline 5 mM), 10.1%. In addition, the GDH inhibition rate with MpGDH (1,10-phenanthroline 10 mM) came out at 23.9%; with MpGDH (1,10-phenanthroline 25 mM), 44.1%; in the assay on MpGDH (1,10-phenanthroline 50 mM), 68.6%. For the same molecule, the inhibitory effects in assay [1] (1,10-phenanthroline 1 mM) was 2-4%; in assay [1] (1,10-phenanthroline 5 mM), “about 10%”.
